The source of these data is patent publication US8329645B2, “Polymyxin derivatives and uses thereof” (priority 2008, dated 2012).

One series concerns E. coli IH3080 (O18:K1). Description: Synergistic bactericidal activity with guinea pig serum (complement). The series is classed as cell-based, Escherichia coli. How it is done:
The ability of NAB7061 to sensitize encapsulated, smooth strain of E. coli to the bactericidal action of normal guinea pig serum (GPS) was studied by the method described by Vaara et al. (1984). E. coli IH3080 (018,K1) was grown in LB broth (LB broth Lennox, Difco, BD, Sparks, Md., U.S.A) at 37° C. in a rotary shaker into early logarithmic growth phase, washed with PBS (phosphate-buffered saline, 8.0 g of NaCl, 0.2 g of KCl, 1.44 g of Na2HPO4×2H2O and 0.2 g of KH2PO4 per liter) and resuspended in PBS, to approx. 10^9 cells/ml). GPS was used as complement source. It was stored at −70° C. before use.
The experimental procedure was as follows. 10% GPS in PBS was inoculated with approx. 500 CFU (colony forming units) of bacteria per ml and pipetted in 0.2 ml aliquots into wells of microtiter plates. The wells already contained increasing amounts of NAB7061 in 0.020 ml of 0.9% NaCl. The plate was incubated at 37° C. for 2 h whereafter each well was emptied onto LB plates. The plates were incubated overnight at 37° C. and the developed colonies were counted.

A short description of another series: in vivo. The note with it: male, Sprague-Dawley, rat, iv, 1 mg/kg.
Another series concerns Pseudomonas aeruginosa. The series is classed as cell-based. How it is done:
Polymyxin B sulfate (Sigma-Aldrich, St. Louis, Mo., USA) was used as a control. […] Fourteen (14) strains (the F-strains) were purchased from Mobidiag Ltd., Helsinki, Finland. Besides bacteria, the MIC was also determined for the yeast Candida albicans (ATCC 28366 from ATCC). The inocula were prepared by adjusting the bacterial suspensions to a density equivalent to OD546 nm˜0.3 (˜10^8 CFU/ml˜0.5 McFarland) the yeast suspension to a density equivalent to OD546 nm˜0.75 (˜2×10^7 CFU/ml)._The suspensions were diluted to 10^7 CFU/ml. The plates were inoculated by using a Denley Multipoint Inoculator, 1 μl per spot corresponding to approx. 10^4 CFU/spot. Plates were incubated for 16-20 hours at 35° C. […] Both agents had good activity also against other polymyxin-susceptible strains of Enterobacteriaceae. […] S. aureus and C. albicans were resistant to the NAB peptides.

Where a SMILES comes first, the peptide text is derived from it. Bridges are numbered along the chain shown (N, C = ends). [ ]: non-standard residue; d: D form. The star is where a group is joined. Decanoyl = CCCCCCCCCC(=O)*; Octanoyl = CCCCCCCC(=O)*; Dab = NCC[C@H](N)C(=O)O; Abu = CC[C@H](N)C(=O)O

Method for in vivo: Each rat (n=5, Sprague-Dawley, male) was anaesthetized using isoflurane, and a polyethylene cannula was inserted into the jugular vein. Each rat was placed into a metabolic cage and allowed to recover from the procedure overnight. […] When collecting samples, the first 100 μl of blood was withdrawn and kept in the syringe. After collecting the actual sample with another syringe, the content of the first syringe was returned to the rat together with 400 μl of heparinized saline. Blood samples were centrifuged to obtain plasma. […] Plasma and urine samples were stored at −80° C.
To a 100-μl sample, 100 μl of acetonitrile was added, the mixture was vortex-mixed for 1 min, and centrifuged at 10,000 g for 10 min. The supernatant was transferred to an SPE C18 cartridge (Sep-Pak, Waters, Mass. USA) for derivatization with 9-fluorenylmethyl chloroformate. […] The chromatography employed the HPLC C18 column (50×4.6 mm), the mobile phase of acetonitrile/tetrahydrofuran/water (60:15:30, v/v), the flow rate of 1.0 ml/min, and the detection at an excitation wavelength of 260 nm and an emission wavelength of 315 nm.

One may read the Vd as a proportionality between amount in the body and measured concentration, not a real space. Broadly, the clearance is a measure of how efficiently the substance is removed, as volume per time. Higher therefore signals efficient removal. The term half-life denotes the time in which the quantity being followed falls by half. Low values mean fast loss, high ones slow loss. `CCCCCCCC(=O)N[C@H](C(=O)N[C@@H](CC)C(=O)N[C@H]1CCNC(=O)[C@H]([C@@H](C)O)NC(=O)[C@H](CCN)NC(=O)[C@H](CCN)NC(=O)[C@H](CC(C)C)NC(=O)[C@@H](Cc2ccccc2)NC(=O)[C@H](CCN)NC1=O)[C@@H](C)O` [NAB 7061, OA-Thr-Abu-cy[Dab-Dab-DPhe-Leu-Dab-Dab-Thr-]] (Octanoyl-T[Abu][Dab][Dab][dF]L[Dab][Dab]T; lactam 3-C): the “% survival after 2-hour treatment at 37° C.” value amounted to 500% in the series with E. coli IH3080 (O18:K1) (10% GPS, heat inactivated, NAB7061 2 μg/ml); 2% in the series with E. coli IH3080 (O18:K1) (10% GPS, NAB7061 2 μg/ml); 0% in the series on E. coli IH3080 (O18:K1) (10% GPS, NAB7061 4 μg/ml); 97% in the series with E. coli IH3080 (O18:K1) (none (PBS), NAB7061 2 μg/ml). Further, in “in vivo” (plasma and urine), the CL renal was 0.28 ± 0.16 mL/min/kg. The Vd in the series “in vivo” (plasma) worked out at 0.339 ± 0.096 L/kg. Besides, in “in vivo” (plasma), the clearance was determined as 3.84 ± 0.75 mL/min/kg. The same molecule came in with a half-life in the series “in vivo” (plasma) of 1.1 ± 0.205 h. This molecule also came in with a dose excreted in “in vivo” (urine) of 7.16 ± 3.7%.
On to `CCCCCCCCCC(=O)N[C@H](C(=O)N[C@H](CO)C(=O)N[C@H]1CCNC(=O)[C@H]([C@@H](C)O)NC(=O)[C@H](CCN)NC(=O)[C@H](CCN)NC(=O)[C@H](CC(C)C)NC(=O)[C@@H](Cc2ccccc2)NC(=O)[C@H](CCN)NC1=O)[C@@H](C)O` [NAB 740, DA-Thr-DSer-cy[Dab-Dab-DPhe-Leu-Dab-Dab-Thr-]] (Decanoyl-T[dS][Dab][Dab][dF]L[Dab][Dab]T; lactam 3-C), for which the “MIC, range for Pseudomonas aeruginosa” value against Pseudomonas aeruginosa lay in the range of 4 to 8 µg/mL.
